Measured values as given in patent publication US20090118135A1, “METHODS AND COMPOUNDS FOR REGULATING APOPTOSIS” (The Burnham Institute, priority 2007, published 2009).
Read-outs that look alike come from different tables or passages of the source.

Biological target: T1, GST-Bcl-B (Homo sapiens, UniProt Q9HD36)
T1 sequence (Q9HD36 1-182 limits assumed): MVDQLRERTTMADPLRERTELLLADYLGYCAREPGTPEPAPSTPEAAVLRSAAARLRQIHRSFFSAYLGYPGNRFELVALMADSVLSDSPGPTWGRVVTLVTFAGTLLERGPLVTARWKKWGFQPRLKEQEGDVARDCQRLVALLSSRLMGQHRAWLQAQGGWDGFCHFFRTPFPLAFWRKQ
Test: Bcl-B/FITC-TR3-r8 fluorescence polarization competition (displacement) assay, HTS and dose-response

[1] = LOPAC1280 library primary screen
[2] = LOPAC1280 library, fluorescence intensity normalized to plate negative controls
[3] = read-out: Result Value (% Inhibition)
[4] = Table 8, NCI Structural library, Binding Assay, FP, Concentration 0.02 uM
[5] = read-out: Result Value (Result Type % Inhibition), BCL-b/TR3
[6] = Table 7, NCI Mechanistic library, Binding Assay, FP, Concentration 0.02 uM
[7] = read-out: Result Value (Result Type % Inhibition), BCL-b/TR3, Table 7, NCI Mechanistic library, Binding Assay, FP, Concentration 0.02 uM
[8] = read-out: Result Value (Result Type % Inhibition), BCL-b/TR3, Table 8, NCI Structural library, Binding Assay, FP, Concentration 0.02 uM

Structure (SMILES): O=C(O)C1=CC(=C(c2ccc(O)c(C(=O)O)c2)c2ccc(O)c(C(=O)O)c2)C=CC1=O [A 1895]
- Is Hit [1]: Yes
- F Ratio [2]: 0.07629
- inhibition at 0.02 µM [3]: 107%

Structure (SMILES): O=S(=O)(O)c1ccc2c(/N=N/c3cccc4ccccc34)c(O)c(S(=O)(=O)O)cc2c1 [Compound 45583]
- F Ratio [4]: 0.1069
- Is Hit [4]: Yes
- inhibition at 0.02 µM [5]: 84.6%

Structure (SMILES): CC(=O)O.Cc1c2cc[n+](CCN3CCCCC3)cc2c(C)c2c1[nH]c1ccc(O)cc12 [Compound 311153]
- F Ratio [6]: 0.275
- Is Hit [6]: Yes
- F Ratio [4]: 0.3973
- Is Hit [4]: Yes
- inhibition at 0.02 µM [7]: 120%
- inhibition at 0.02 µM [8]: 128%

Structure (SMILES): COC(=O)c1ccc(O)c2nc3c(C=O)c(O)cc(O)c3nc12 [Compound 106995]
- F Ratio [6]: 0.08027
- Is Hit [6]: Yes
- inhibition at 0.02 µM [5]: 98.9%

Structure (SMILES): O=C1c2cccc(NCCCNCCO)c2C(=O)c2cccc(NCCCNCCO)c21 [Compound 363998]
- F Ratio [6]: 0.2213
- Is Hit [6]: Yes
- inhibition at 0.02 µM [5]: 115%

Structure (SMILES): Nc1ccc2c(c1)CN1C(=O)c3ccccc3C1=N2 [Compound 320846]
- F Ratio [6]: 1.4904
- Is Hit [6]: Yes
- inhibition at 0.02 µM [7]: 60.7%

Structure (SMILES): O=S(=O)(O)c1cc(/N=[N+](\[O-])c2cc(S(=O)(=O)O)c3ccccc3c2)cc2ccccc12 [Compound 37031]
- F Ratio [4]: 0.4022
- Is Hit [4]: Yes
- inhibition at 0.02 µM [5]: 84.6%

Structure (SMILES): c1ccc2c(NCCCCCCCCNc3c4ccccc4nc4ccccc34)c3ccccc3nc2c1 [Compound 219734]
- F Ratio [6]: 0.2008
- Is Hit [6]: Yes
- Result Value (Result Type % Inhibition), BCL-b/TR3 [6]: 53.437%

Structure (SMILES): Cc1cc2c(c3oc(C4OC4C4OC4C)cc(=O)c13)C(=O)c1c(O)c(C3CC(C)(N(C)C)C(O)C(C)O3)cc(C3CC(N(C)C)C(O)C(C)O3)c1C2=O (stereo not drawn) [Compound 70929]
- F Ratio [6]: 0.1099
- Is Hit [6]: Yes
- inhibition at 0.02 µM [7]: 105%

Structure (SMILES): CNc1ccc(Nc2ccc(S(=O)(=O)O)cc2)c2c1C(=O)c1ccccc1C2=O [Compound 128437]
- F Ratio [4]: 0.9929
- Is Hit [4]: Yes
- inhibition at 0.02 µM [5]: 166%

Structure (SMILES): CCc1c(O)c2c(c(O)c1C(C)=O)C(=O)c1c(cc(O)c(C(=O)O)c1C(=O)O)C2=O [Compound 170005]
- F Ratio [4]: 0.1552
- Is Hit [4]: Yes
- inhibition at 0.02 µM [5]: 123%

Structure (SMILES): O=C1C(Br)=C(N2CCN(CCOCCO)CC2)C(=O)c2c(O)ccc(O)c21 [Compound 659999]
- Is Hit [6]: Yes

Structure (SMILES): [O-][n+]1c2c([n+]([O-])c3ccccc31)-c1cccc3cccc-2c13 [Compound 60309]
- F Ratio [6]: 1.4371
- Is Hit [6]: Yes
- inhibition at 0.02 µM [5]: 72.3%

Structure (SMILES): O=S(=O)(O)c1cc(/N=N/c2cccc3ccccc23)c(O)c2ncccc12 [Compound 148354]
- F Ratio [4]: 0.07045
- Is Hit [4]: Yes
- inhibition at 0.02 µM [5]: 102%

Structure (SMILES): N#C/C(=C\c1ccc(O)c(O)c1)C(=O)c1ccc(O)c(O)c1 [T 7822]
- Is Hit [1]: Yes
- F Ratio [2]: 0.1036
- inhibition at 0.02 µM [3]: 61.7%

Structure (SMILES): O=C1OC(c2ccccc2)=N/C1=C\c1ccc(N(CCCl)CCCl)cc1 [Compound 104117]
- F Ratio [6]: 1.2733
- Is Hit [6]: Yes
- inhibition at 0.02 µM [5]: 62.8%

Structure (SMILES): O=[N+]([O-])c1ccc2c(/N=N/c3ccc4ccccc4c3O)c(O)cc(S(=O)(=O)O)c2c1 [Compound 7223]
- F Ratio [4]: 0.05712
- Is Hit [4]: Yes
- inhibition at 0.02 µM [5]: 139%

Structure (SMILES): N=C(N)c1ccc(/N=N/c2c(O)ccc3c2[nH]c2ccccc23)cc1 [Compound 357777]
- F Ratio [4]: 0.06989
- Is Hit [4]: Yes
- inhibition at 0.02 µM [5]: 120%

Structure (SMILES): COc1ccc2nc3cc(Cl)ccc3c(Nc3ccc(O)c(CN4CCN(C)CC4)c3)c2c1.Cl [Compound 130813]
- F Ratio [4]: 0.07696
- Is Hit [4]: Yes
- inhibition at 0.02 µM [5]: 133%

Structure (SMILES): O=S(=O)(O)c1cc(O)c2c(O)c(/N=N/c3cccc4ccccc34)c(S(=O)(=O)O)cc2c1 [Compound 45208]
- F Ratio [4]: 0.1219
- Is Hit [4]: Yes
- inhibition at 0.02 µM [5]: 66.1%

Structure (SMILES): C[n+]1c(/C=C/c2ccc(O)c3ncccc23)[se]c2ccccc21 [Compound 86374]
- F Ratio [4]: 0.09444
- Is Hit [4]: Yes
- inhibition at 0.02 µM [8]: 61.4%

Structure (SMILES): COc1cccc2c1C(=N)c1c(O)c3c(c(O)c1C2=O)C[C@@](O)(C(C)=O)C[C@@H]3OC1CC(N)C(O)C(C)O1 (stereo partly drawn) [Compound 254681]
- F Ratio [4]: 0.5232
- Is Hit [4]: Yes
- inhibition at 0.02 µM [5]: 138%

Structure (SMILES): CN1CCN(c2ccc3nc(-c4ccc5[nH]c(-c6ccc(O)cc6)nc5c4)[nH]c3c2)CC1 [Compound 322921]
- inhibition at 0.02 µM [8]: 71.6%

Structure (SMILES): CS(=O)(=O)Nc1ccc(Nc2c3ccccc3nc3ccccc23)cc1 [Compound 156305]
- F Ratio [4]: 0.1208
- Is Hit [4]: Yes
- inhibition at 0.02 µM [5]: 58.6%

Structure (SMILES): O=c1c(O)c(-c2ccc(O)c(O)c2)oc2cc(O)cc(O)c12 [Q 0125]
- Is Hit [1]: Yes
- F Ratio [2]: 0.1424
- inhibition at 0.02 µM [3]: 52%

Structure (SMILES): NC(=O)OCC1=C(COC(N)=O)C(=O)c2c(O)ccc(O)c2C1=O [Compound 224124]
- F Ratio [6]: 1.1456
- Is Hit [6]: Yes
- inhibition at 0.02 µM [5]: 145%

Structure (SMILES): O=C(O)C1CCCCC1c1c2ccc(=O)c(O)c-2oc2c(O)c(O)ccc12 (stereo not drawn) [Compound 119910]
- F Ratio [4]: 0.1582
- Is Hit [4]: Yes
- inhibition at 0.02 µM [5]: 119%

Structure (SMILES): Nc1ccc(/N=N/c2ccc(-c3ccc(O)cc3)cc2)c2ccc(S(=O)(=O)O)cc12 [Compound 65528]
- F Ratio [4]: 0.1609
- Is Hit [4]: Yes
- inhibition at 0.02 µM [5]: 71.6%

Structure (SMILES): CC[n+]1c(-c2ccccc2)c2cc(N)ccc2c2ccc(N)cc21 [Compound 268986]
- F Ratio [6]: 0.3849
- Is Hit [6]: Yes
- inhibition at 0.02 µM [7]: 149%

Structure (SMILES): N=C1C(O)C2(I)c3ccccc3N3C(=N)C(O)C4c5ccccc5N1C4C32 (stereo not drawn) [Compound 118176]
- F Ratio [4]: 0.5128
- Is Hit [4]: Yes
- inhibition at 0.02 µM [5]: 62.3%

Structure (SMILES): CN(C)S(=O)(=O)c1ccc(Nc2ccc(O)c3c2C(=O)c2c([N+](=O)[O-])ccc(O)c2C3=O)cc1 [Compound 117949]
- F Ratio [4]: 0.9351
- Is Hit [4]: Yes
- inhibition at 0.02 µM [5]: 50.3%

Structure (SMILES): O=S(=O)(O)c1ccc2c(/N=N/c3c(O)ccc4ccccc34)cccc2c1 [Compound 45576]
- F Ratio [4]: 0.05945
- Is Hit [4]: Yes
- inhibition at 0.02 µM [5]: 119%

Structure (SMILES): Cc1cc(C(=C2C=CC(=N)C=C2)c2ccc(N)cc2)ccc1N [Compound 93739]
- inhibition at 0.02 µM [5]: 78.6%

Structure (SMILES): Nc1c(S(=O)(=O)O)cc(Nc2ccc(Nc3nc(Cl)nc(Nc4ccc(S(=O)(=O)O)cc4)n3)c(S(=O)(=O)O)c2)c2c1C(=O)c1ccccc1C2=O [Compound R-115]
- Is Hit [1]: Yes
- F Ratio [2]: 0.1652
- inhibition at 0.02 µM [3]: 80.8%

Structure (SMILES): Oc1c(C(O)(c2ccccc2)c2ccc3ccccc3c2O)ccc2ccccc12 [Compound 13984]
- F Ratio [4]: 0.7704
- Is Hit [4]: Yes
- inhibition at 0.02 µM [5]: 87%

Structure (SMILES): O=C1c2c(O)ccc(O)c2C(=O)c2c(NCCNCCO)ccc(NCCNCCO)c21 [M 6545]
- Is Hit [1]: Yes
- F Ratio [2]: 1.1021
- inhibition at 0.02 µM [3]: 148%

Structure (SMILES): CN1CC=C(Nc2ccc(C(=O)Nc3ccc(Nc4ccncc4)cc3)c([N+](=O)[O-])c2)c2cc([N+](=O)[O-])ccc21 [Compound 218439]
- F Ratio [6]: 0.07485
- Is Hit [6]: Yes
- inhibition at 0.02 µM [7]: 106%

Structure (SMILES): CN(C)CS/C(N)=N\C(O)C(Cl)(Cl)Cl (stereo not drawn) [Compound 14555]
- F Ratio [4]: 0.6767
- Is Hit [4]: Yes
- inhibition at 0.02 µM [8]: 59.9%

Structure (SMILES): O=S(=O)(O)c1ccc(NN(c2c(O)ccc3ccccc23)S(=O)(=O)O)cc1 [Compound 9600]
- F Ratio [4]: 0.4361
- Is Hit [4]: Yes
- inhibition at 0.02 µM [5]: 50.7%

Structure (SMILES): Nc1nc(N)c(/N=N/c2ccc(C(=O)O)c(O)c2)c(N)n1 [Compound 117285]
- F Ratio [4]: 0.2954
- Is Hit [4]: Yes
- inhibition at 0.02 µM [5]: 59.9%

Structure (SMILES): O=[N+]([O-])c1ccc2c(/N=N/c3c(O)ccc4ccccc34)c(O)cc(S(=O)(=O)O)c2c1 [Compound 73413]
- F Ratio [6]: 0.05947
- Is Hit [6]: Yes
- inhibition at 0.02 µM [5]: 125%

Structure (SMILES): O=S(=O)(O)c1ccc2cc(/N=N/c3cc(S(=O)(=O)O)c4cccnc4c3O)ccc2c1 [Compound 87677]
- F Ratio [4]: 0.3822
- Is Hit [4]: Yes
- inhibition at 0.02 µM [5]: 66.1%

Structure (SMILES): CN(C)C1C(O)=C(C(=O)NCN2CCCC2)C(=O)C2(O)C(O)=C3C(=O)c4c(O)cccc4C(C)(O)C3CC12 (stereo not drawn) [Compound 50352]
- F Ratio [4]: 0.2153
- Is Hit [4]: Yes
- inhibition at 0.02 µM [8]: 122%

Structure (SMILES): CN(C)C1C(O)=C(C(N)=O)C(=O)C2(O)C(O)=C3C(=O)c4c(O)cccc4C(C)(O)C3CC12.CS(=O)(=O)O (stereo not drawn) [Compound 69343]
- F Ratio [4]: 0.3746
- Is Hit [4]: Yes
- inhibition at 0.02 µM [5]: 93.4%

Structure (SMILES): Nc1c(S(=O)(=O)O)cc(Nc2cccc(S(N)(=O)=O)c2)c2c1C(=O)c1ccccc1C2=O [Compound 117079]
- F Ratio [4]: 0.4053
- Is Hit [4]: Yes
- inhibition at 0.02 µM [5]: 163%

Structure (SMILES): Cc1cc2c(C(C)C)c(O)c(O)c(C=O)c2c(O)c1-c1c(C)cc2c(C(C)C)c(O)c(O)c(C=O)c2c1O [Compound 56817]
- F Ratio [6]: 0.1472
- Is Hit [6]: Yes
- inhibition at 0.02 µM [7]: 57.3%

Structure (SMILES): CN(C)CCc1c2c(nc3ccccc13)C(=O)c1cccnc1C2=O [Compound 680734]
- F Ratio [6]: 0.1433
- Is Hit [6]: Yes
- inhibition at 0.02 µM [5]: 82.6%
